Laboratory results published in PubChem BioAssay AID1996.
Values after ≈ are worked out from the molar mass of the structure shown.

conditions: buffer; pH 7.4; 200.0 µM

**Q.** Which solubility kinetic does the source give for `CCOCCCNCc1cc(Br)ccc1OCC.Cl` here?
**A.** > 52.9 µg/mL

**Q.** Which solubility kinetic does the source give for `O=C(NCCN1CCOCC1)c1ccc(Cl)nc1` here?
**A.** > 40.5 µg/mL

**Q.** For `Cc1ccc(NC(=O)CC2(CC(=O)O)CCCC2)c(C)c1`, which solubility kinetic is on record?
**A.** 40.8 µg/mL (≈ 141 µM)

**Q.** With `O=[N+]([O-])c1ccc(CN2CCN(c3ncccn3)CC2)cc1` as the compound, how does the solubility kinetic read?
**A.** 10.1 µg/mL (≈ 33.7 µM)

**Q.** For `Cc1noc(C(=O)N(C)c2ccccc2)c1Cl`, which solubility kinetic is on record?
**A.** 33.8 µg/mL (≈ 135 µM)

**Q.** For `O=C(NC(=S)N1CCCC(O)C1)c1ccco1` (stereo not given), which solubility kinetic is on record?
**A.** > 38.1 µg/mL

**Q.** Which solubility kinetic does the source give for `CN1CCN(C(=O)c2cc(Cl)cc(Cl)c2)CC1` here?
**A.** > 41 µg/mL

**Q.** For `CN(C(=O)CNc1ccccc1Cl)C1CCS(=O)(=O)C1` (stereo not given), which solubility kinetic is on record?
**A.** > 47.5 µg/mL

**Q.** For `COc1ccc(CN2C(=O)CSCC2=O)cc1OC`, which solubility kinetic is on record?
**A.** > 42.2 µg/mL

**Q.** Which solubility kinetic does the source give for `CC(C)Cc1ccc(S(=O)(=O)NCC2CCCO2)cc1` (stereo not given) here?
**A.** 33.6 µg/mL (≈ 113 µM)

**Q.** With `COC(=O)[C@H](CC(C)C)NC(=O)Nc1ccc(S(N)(=O)=O)cc1` as the compound, how does the solubility kinetic read?
**A.** > 51.5 µg/mL

**Q.** For `CCOC(=O)c1ccc(NC(=O)c2cccnc2)cc1`, which solubility kinetic is on record?
**A.** > 40.5 µg/mL

**Q.** Which solubility kinetic does the source give for `O=C(CNC(=O)c1cccc(F)c1)N/N=C/c1cccnc1` here?
**A.** > 45 µg/mL

**Q.** With `COc1ccc(-c2csc3ncnc(NCCO)c23)cc1` as the compound, how does the solubility kinetic read?
**A.** > 45.2 µg/mL

**Q.** For `CN1CCN(C(=S)C(=O)NCc2ccccc2)CC1`, which solubility kinetic is on record?
**A.** > 41.6 µg/mL

**Q.** Which solubility kinetic does the source give for `CCCCNc1nc2cccnc2s1` here?
**A.** 30.4 µg/mL (≈ 147 µM)

**Q.** With `N#CC1(NC(=O)COc2cccnc2[N+](=O)[O-])CCCCC1` as the compound, how does the solubility kinetic read?
**A.** > 45.6 µg/mL

**Q.** For `NC(=O)C1CCN(c2nc3ccccc3nc2NS(=O)(=O)c2ccc(Br)cc2)CC1`, which solubility kinetic is on record?
**A.** 53.9 µg/mL (≈ 110 µM)

**Q.** With `O=C(/C=C\N1CCOCC1)c1ccc(Br)cc1` as the compound, how does the solubility kinetic read?
**A.** > 44.4 µg/mL

**Q.** For `Cc1c(C)c(C)c2[nH]c(-c3ccc4c(c3)OCO4)nc2c1C`, which solubility kinetic is on record?
**A.** < 0.3 µg/mL

**Q.** Which solubility kinetic does the source give for `Cc1ccc(S(=O)(=O)N2CCOCC2)cc1NC(=O)COC(=O)Cc1ccc(Cl)cc1` here?
**A.** 18.7 µg/mL (≈ 40 µM)

**Q.** Which solubility kinetic does the source give for `CCn1c(SCC(=O)O)nnc1-c1ccccc1OC` here?
**A.** > 44 µg/mL

**Q.** With `O=C(c1ccc2c(c1)OCO2)C1CCCN(CC2CCCCC2)C1` (stereo not given) as the compound, how does the solubility kinetic read?
**A.** > 49.4 µg/mL

**Q.** For `CCCCC(=O)Nc1ccccc1CC`, which solubility kinetic is on record?
**A.** > 30.8 µg/mL

**Q.** With `Cc1nn(CC(=O)N(C)C2(C#N)CCCCC2)c(C)c1[N+](=O)[O-]` as the compound, how does the solubility kinetic read?
**A.** > 47.9 µg/mL

**Q.** For `O=C(Nc1c(-c2ccccc2)nc2ccccn12)c1cccc(F)c1`, which solubility kinetic is on record?
**A.** 1.4 µg/mL (≈ 4.23 µM)

**Q.** For `Cc1ccc(S(=O)(=O)N(C)C)cc1NC(=O)c1cc(-c2ccncc2)nc2ccccc12`, which solubility kinetic is on record?
**A.** 10 µg/mL (≈ 22.4 µM)

**Q.** For `Cc1ccc(C(=O)O/N=C(\N)Cc2cccs2)cc1[N+](=O)[O-]`, which solubility kinetic is on record?
**A.** 39.9 µg/mL (≈ 125 µM)

**Q.** With `Cc1ccc(NC(=O)OCc2cncs2)cc1` as the compound, how does the solubility kinetic read?
**A.** > 37.2 µg/mL

**Q.** For `CCC(C)[C@H](NC(=O)N1CCC(C)CC1)C(=O)O` (stereo not given in full), which solubility kinetic is on record?
**A.** > 38.5 µg/mL

**Q.** Which solubility kinetic does the source give for `Cc1ccc(NC(=O)O/N=C/c2ccc(N(C)C)cc2)cc1` here?
**A.** 1.1 µg/mL (≈ 3.7 µM)

**Q.** Which solubility kinetic does the source give for `CN1C(=O)C(c2ccccc2)C(=O)N(C)C1=O` here?
**A.** 30.5 µg/mL (≈ 131 µM)

**Q.** Which solubility kinetic does the source give for `Cc1ccc(N=Cc2cc3c(cc2[N+](=O)[O-])OCO3)cc1[N+](=O)[O-]` here?
**A.** 20.5 µg/mL (≈ 62.3 µM)

**Q.** With `Cc1ncc([N+](=O)[O-])n1CCOc1nonc1N` as the compound, how does the solubility kinetic read?
**A.** > 38.1 µg/mL

**Q.** For `O=C(COC(=O)c1ccc[nH]c1=O)Nc1ccc(N2CCCCC2)cc1`, which solubility kinetic is on record?
**A.** > 53.3 µg/mL

**Q.** For `Cc1ccnc(SCC(N)=O)n1`, which solubility kinetic is on record?
**A.** > 27.5 µg/mL

**Q.** With `O=C(NNC(=O)c1ccc2nc[nH]c2c1)c1ccccc1` as the compound, how does the solubility kinetic read?
**A.** > 42 µg/mL

**Q.** For `O=C(NCc1ccccc1)c1cc[n+]([O-])cc1`, which solubility kinetic is on record?
**A.** > 34.2 µg/mL

**Q.** With `CCOC(=O)C1=C(C)N(C)C(=O)NC1c1ccc2c(c1)OCO2` (stereo not given) as the compound, how does the solubility kinetic read?
**A.** > 47.7 µg/mL

**Q.** For `CCc1ccccc1NC(=O)CC(=O)Nc1ccccc1CC`, which solubility kinetic is on record?
**A.** > 46.6 µg/mL

**Q.** Which solubility kinetic does the source give for `Cc1ccccc1NC(=S)N1CCN(c2ccccc2Cl)CC1` here?
**A.** 17.5 µg/mL (≈ 50.6 µM)

**Q.** With `Cc1ccc2[nH]c3c(NCc4ccccc4)ncnc3c2c1` as the compound, how does the solubility kinetic read?
**A.** 4.4 µg/mL (≈ 15.3 µM)

**Q.** For `Cc1ccc(NC(=O)COC(=O)c2nn(C)cc2Cl)cc1`, which solubility kinetic is on record?
**A.** > 46.2 µg/mL

**Q.** Which solubility kinetic does the source give for `CC1=Nc2cc(C(=O)O)ccc2Sc2c(C)ccc(C)c21` here?
**A.** 42.1 µg/mL (≈ 142 µM)

**Q.** With `CC(=O)NCCc1nc2ccccc2n1Cc1cccc(C)c1` as the compound, how does the solubility kinetic read?
**A.** > 46.1 µg/mL

**Q.** With `NC(=O)c1ccc(NC(=O)COC(=O)CCC2CCCCC2)cc1` as the compound, how does the solubility kinetic read?
**A.** 9.1 µg/mL (≈ 27.4 µM)

**Q.** For `CC(=O)Nc1ccccc1C(=O)OCc1ccccc1F`, which solubility kinetic is on record?
**A.** 32 µg/mL (≈ 111 µM)

**Q.** For `CC1CC(C)CN(C(=O)COC(=O)c2ccc([N+](=O)[O-])o2)C1` (stereo not given), which solubility kinetic is on record?
**A.** > 46.5 µg/mL

**Q.** For `O=C(NCc1ccccc1)Nc1cccc2ccccc12`, which solubility kinetic is on record?
**A.** 0.6 µg/mL (≈ 2.17 µM)

**Q.** With `Cc1cc(C)c(C(=O)C(C)OC(=O)c2ccccn2)cc1C` (stereo not given) as the compound, how does the solubility kinetic read?
**A.** 17.7 µg/mL (≈ 59.5 µM)

**Q.** With `COc1ccc(C(C)NC(=O)CCc2ccccc2)cc1` (stereo not given) as the compound, how does the solubility kinetic read?
**A.** 40.8 µg/mL (≈ 144 µM)

**Q.** Which solubility kinetic does the source give for `Cc1ccc(CN(CCO)CCO)cc1` here?
**A.** 29.4 µg/mL (≈ 140 µM)

**Q.** Which solubility kinetic does the source give for `COc1ccc(NS(=O)(=O)c2ccc(N3CCCC3)c(NC(=S)Nc3cccc(C)c3C)c2)cc1` here?
**A.** 7.6 µg/mL (≈ 14.9 µM)

**Q.** With `Cc1csc(C(=O)O)c1NC(=O)c1ccc(F)cc1` as the compound, how does the solubility kinetic read?
**A.** > 41.9 µg/mL

**Q.** With `O=C1NCC(COc2ccc([N+](=O)[O-])cc2)O1` (stereo not given) as the compound, how does the solubility kinetic read?
**A.** 34.1 µg/mL (≈ 143 µM)

**Q.** Which solubility kinetic does the source give for `CCOc1ccc(C(=O)NCCc2cnc[nH]2)cc1` here?
**A.** > 38.9 µg/mL

**Q.** With `CCc1sc(C(=O)Nc2nc(-c3ccccn3)cs2)cc1C` as the compound, how does the solubility kinetic read?
**A.** 2.9 µg/mL (≈ 8.8 µM)

**Q.** For `COc1ccc(NC(=O)CN2CCCC2)cc1`, which solubility kinetic is on record?
**A.** 34 µg/mL (≈ 145 µM)

**Q.** Which solubility kinetic does the source give for `Clc1cnc2nc(SC/C=C/c3ccccc3)[nH]c2c1` here?
**A.** < 0.2 µg/mL

**Q.** With `CC(C)CNC(=O)C(=O)NCCCN1CCOCC1` as the compound, how does the solubility kinetic read?
**A.** > 40.7 µg/mL
